Laboratory results from paper PMC11355918, “Inhibition of Soluble Epoxide Hydrolase by Cembranoid Diterpenes from Soft Coral Sinularia maxima: Enzyme Kinetics, Molecular Docking, and Molecular Dynamics” (Marine Drugs, 2024).
Like-named read-outs stand apart in the source and are kept apart here.

Tests used:
recombinant human sEH [1] = biological target: T1, recombinant human sEH (Homo sapiens, UniProt P34913); test: biochemical; details: PHOME substrate, 37 °C, 60 min, mean ± SD (n = 3); read-out: IC50 (sEH inhibitory effect)
T1 sequence (P34913 1-555): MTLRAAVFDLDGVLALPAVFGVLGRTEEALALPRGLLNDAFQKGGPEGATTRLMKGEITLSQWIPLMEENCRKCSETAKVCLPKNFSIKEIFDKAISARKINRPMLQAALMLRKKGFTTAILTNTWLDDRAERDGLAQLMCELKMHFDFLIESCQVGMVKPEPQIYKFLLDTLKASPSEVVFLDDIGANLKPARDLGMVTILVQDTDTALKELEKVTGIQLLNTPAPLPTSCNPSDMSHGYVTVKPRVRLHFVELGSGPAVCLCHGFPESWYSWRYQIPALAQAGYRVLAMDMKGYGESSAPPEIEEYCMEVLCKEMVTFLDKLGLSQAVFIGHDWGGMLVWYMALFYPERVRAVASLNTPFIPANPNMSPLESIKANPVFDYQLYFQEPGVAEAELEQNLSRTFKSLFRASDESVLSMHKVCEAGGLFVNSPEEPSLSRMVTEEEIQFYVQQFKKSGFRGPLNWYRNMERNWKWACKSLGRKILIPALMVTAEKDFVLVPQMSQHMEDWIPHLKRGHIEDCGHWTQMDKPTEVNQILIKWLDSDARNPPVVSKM
Procedure: Bis-Tris (B9754) was purchased from Sigma-Aldrich (St. Louis, MO, USA).
The sEH inhibition assay was performed as described in a previous study, with slight modifications. In 96-well plates, separate mixtures were prepared for each test compound, containing 130 µL of sEH in Bis-Tris buffer with HCl (pH 7.0, containing 0.1% bovine serum albumin) and 20 µL of the test compound (10 mM, diluted in DMSO). Subsequently, 50 µL of PHOME, which serves as a substrate, was added to each well. The mixtures were then incubated at 37 °C, and fluorescence was monitored using the VICTOR Nivo multimode plate reader (PerkinElmer, Waltham, MA, USA) for 60 min, with excitation and emission wavelengths of 330 nm and 460 nm, respectively. […] The inhibitory activity was calculated using the following equation:Inhibitory activity (%) = [1 − (ΔI/ΔC)] × 100%, where ΔI and ΔC are the fluorescence readings of the inhibitor and the control after 60 min, respectively. IC50 values were calculated using SigmaPlot 10.0 (Systat Software, CA, USA). Data are presented as means ± standard deviations from three independent experiments (n = 3, p < 0.05).

sEH = details: cited from earlier work
recombinant human sEH [2] = biological target: T1, recombinant human sEH; test: Enzyme kinetics of sEH inhibition (Lineweaver-Burk and Dixon plots); assay type: biochemical; details: for Ki: Determined using Dixon plots, read-out: Ki (inhibition constant); for Inhibition Type: Determined using Lineweaver-Burk plots, PHOME 0.1-0.8 mM
Procedure: The inhibition type of a compound provides insight into how it interacts with the enzyme. […] PHOME concentrations of 0.1, 0.2, 0.4, and 0.8 mM were used, along with compound 3 concentrations of 0, 15, 30, 60, and 90 µM, and compound 9 concentrations of 0, 20, 40, 60, and 100 µM. In the Lineweaver–Burk method, competitive and non-competitive inhibition is indicated by a series of straight lines intersecting at the same point on the y- and x-axes, respectively. […] In most cases, this implies that these inhibitors bind to an allosteric site on the enzyme rather than the active site, thereby preventing the enzyme from functioning regardless of the substrate concentration.
The inhibition constant (Ki) is a measure of the binding affinity of the inhibitor for the enzyme, with a lower value indicating a stronger affinity. Dixon plots were used to determine the Ki values for the compounds.
Enzyme kinetics were analyzed using Lineweaver–Burk and Dixon plots. This approach helped determine the mode of inhibition and the inhibition constant (Ki) at various substrate concentrations, both in the absence (0 μM) and presence of inhibitors. Data were plotted using Microsoft Excel 365.

[3] = protostane-type triterpenoids from Alisma orientale, read-out: IC50 (sEH inhibition)

IC50 (recombinant human sEH [1]) | Molecule | also measured
> 100 µM | C=C(C)[C@H]1C/C=C(\C(=O)OC)CC(=O)C[C@@](C)(O)[C@@H](O)C2=CC(C(=O)OC)=C(C1)O2 [Compound 1, sinumaximol A] | 
 | C=C(C)[C@@H](O)[C@@H](O)C[C@@H](C)C1=C2CC[C@H]3[C@@]4(C)CCC(=O)C(C)(C)[C@@H]4CC[C@]3(C)[C@@]2(C)CC1 [11-deoxy-25-anhydro alisol E] | IC50 (sEH; protostane-type triterpenoids, read-out: IC50 (sEH inhibitory effects)): 5.94 ± 0.54 µM
 | 3β-hydroxy-25-anhydro-alisol F | IC50 (sEH; [3]): 10.1 ± 1.12 µM
 | C[C@@H]1CC[C@]2(C(=O)O)CC[C@]3(C)C(=CC[C@@H]4[C@@]5(C)CC(=O)[C@H](O)C(C)(C)[C@@H]5CC[C@]43C)[C@@H]2[C@]1(C)O [2-oxopomolic acid] | IC50 (sEH; triterpenoid from Malus domestica, read-out: IC50 (sEH inhibitory activity)): 11.4 ± 2.7 µM
78.8 ± 2.26 µM | C=C(C)C1CC=C(C(=O)OC)CC(=O)CC(C)(O)C=C2C=C(C(=O)OC)C(OC)(C1)O2 (stereo not drawn) [Compound 9, sethukarailin] | Ki (recombinant human sEH [2]): 55 µM; Inhibition Type (recombinant human sEH [2]): Non-competitive
> 100 µM | C=C(C)[C@H]1CCC2=C[C@@H](C[C@@]3(C)CC(=O)[C@H](CC(=O)C1)O3)OC2=O [Compound 10, 5-epinorcembrene] | 
> 100 µM | C=C1CC=C2C(C=C(C)CCC3OC3(C)CCC1O)OCC2(C)O (stereo not drawn) [Compound 5, sinumaximol E] | 
> 100 µM | C=C(C)C1CCC2=CC(CC(C)(O)C(O)C3=CC(C(=O)OC)=C(C1)O3)OC2=O (stereo not drawn) [Compound 2, sinumaximol B] | 
> 100 µM | CC1=CC2OCC(C)(O)C2=CCC(C)(O)C=CCC2(C)OC2CC1 (stereo not drawn) [Compound 6, sinumaximol F] | 
 | 3β-hydroxy-alisol G | IC50 (sEH; [3]): 30.4 ± 2.65 µM
> 100 µM | CC1=CC2OC(=O)C(C)=C2CCC(C)(O)C=CCC(C)(O)C(O)CC1 (stereo not drawn) [Compound 7, sinumaximol G] | 
> 100 µM | C=C1CCC2(O)C(=C)COC2C=C(C)CCC2OC2(C)CCC1O (stereo not drawn) [Compound 4, sinumaximol D] | 
> 100 µM | C=C1CCC2=C(C)COC2C=C(C)CCC(O)C(C)(O)CCC1O (stereo not drawn) [Compound 8, sinumaximol H] | 

Molecule | IC50 (recombinant human sEH [1]) | also measured
C=C(C)C1CCC23OC2C(CC(C)(O)C=C2C=C(C(=O)OC)C(OC)(C1)O2)OC3=O (stereo not drawn) [Compound 3, sinumaximol C] | 70.7 ± 1.44 µM | Ki (recombinant human sEH [2]): 59.4 µM; Inhibition Type (recombinant human sEH [2]): Non-competitive
